# Measured values published in patent US20250161478A1, “LINKER PAYLOADS AND CONJUGATES THEREOF” (priority 2021, published 2025).
# Like-named read-outs stand apart in the source and are kept apart here.
# Legend:
# [1] = test system: B16-F10 mouse melanoma tumors; experiment: In vivo efficacy of PNU-ADCs in B16-F10 mouse melanoma model (Example 31); set-up: species or system mice
# Procedure: In vivo anti-tumor efficacy of anti-TYRP1 ADCs (TAPeD, FLPeD, CHPeD and FLCPeMg) was evaluated in the B16-F10 mouse melanoma model as described above. […] Tumor growth was followed by palpation, and ADC dosings were administered when tumor sizes reached 60-110 mm^3, between 2-7 days after the inoculation. […] A single i.v. injection of 5 mg/kg ADC in PBS was given on the injection day and the tumor sizes were followed for at least 28 days. […] Another xenograft experiment was performed similarly as above. In this experiment, 10 xenografted mice received no treatment, while 10 xenografted mice were given three i.v. doses of 10 mg/kg TA99 antibody on days 2, 7 and 12 after the inoculation (3×10 mg/kg at 5 day intervals). In every one of these 20 mice the tumors grew to >200 mm^3 during 28 days' follow-up period.
# [2] = In vivo tolerability of PNU-ADCs in normal mice; set-up: species or system C57BL/6J mice; conditions: for Dose-limiting toxicity dose level / MTD (maximum tolerated dose): single i.v. dose; for Dose-limiting toxicity dose level: n=3, followed up to 30 days; for MTD (maximum tolerated dose): n=3, next lower dose below the dose-limiting toxicity dose level
# Procedure: Tolerability and safety of ADCs conjugated with PNU-EDA linker-payloads were tested in normal C57BL/6J mice. Female young adult mice at the age of 8-10 weeks were used, 3 mice/group (n=3). […] Clinical signs, body weight and general behavior of the animals were observed regularly. Dose-limiting toxicity was observed as either over 10% reduction of average body weight in the group or acute toxicity in any animal in the group. Maximum tolerated dose (MTD) was determined as the next lower dose below the dose-limiting toxicity dose level. ADCs were prepared as described above and a single i.v. dose of the ADC was given on the first day of the study. The mice were followed for up to 30 days if no dose-limiting toxicity was observed.
# [3] = test system: IGR-1 human melanoma cells; experiment: Cytotoxicity of ADCs, PrestoBlue cell viability, IGR-1 cells; type: cell-based
# Procedure: (§1) Toxicity of anti-TYRP ADCs was tested with SK-MEL-28 (ATCC: HTB®-72™) SK-MEL-30 (DSMZ: ACC 151) and/or IGR-1 (DSMZ: ACC 236) human melanoma cells.
# IGR-1 cells were seeded in 96-well plate, 2000 cells/well, and cultivated in 10% FBS/DMEM-medium under standard cell culture conditions. After overnight culture, the diluted ADCs or unconjugated antibodies (concentration range 0.1 nM-300 nM) were added to cells, and incubated for 3-5 days. The viability of the cells was evaluated with PrestoBlue cell viability reagent.
# (§2) The AVG % values and standard deviations were transferred to GraphPad Prism 9.1.2.
# [4] = test system: SK-MEL-30 human melanoma cells; experiment: Cytotoxicity of ADCs, PrestoBlue cell viability, SK-MEL-30 cells; type: cell-based; conditions: incubated 3-5 days, ranges are over n experiments
# Procedure: as §1
# SK-MEL-30 were seeded in 96-well plate, 2000 cells/well or 3000 cells/well and cultivated in 10% FBS/RPMI 1640-medium under standard cell culture conditions. After overnight culture, diluted ADCs or antibodies were added to the cells, and incubated for 3-5 days. For cell control, the cells were treated with medium without ADC. The viability of the cells was evaluated with PrestoBlue cell viability reagent.
# as §2
# [5] = test system: B16-F10 mouse melanoma tumors; experiment: In vivo efficacy in B16-F10 syngeneic tumor mice (Example 9); set-up: species or system C57BL/6J mice; conditions: single i.v. 5 mg/kg two days after inoculation, six mice/group
# Excerpt: In vivo anti-tumor efficacy of ADC of monoclonal TA99 IgG2a antibody, glycoconjugated TA99 ADC with DBCO-Val-Ser(GlcA)-EDA-PNU payloads (TA99-PNU ADC, DAR=2) and TA99 ADC with maleimidoacetyl-EDA-PNU payloads (TA99-M-PNU ADC, DAR=4), prepared and maleimide-stabilized as described above, was compared to non-treated mice. B16-F10 mouse melanoma cells were obtained from the ATCC (USA) and cultured according to the manufacturer's instructions to study efficacy of antibody-drug conjugates in highly treatment-resistant syngeneic tumors in female adult C57BL/6J mice at the age of about 8-weeks. […] Tumor growth was followed by palpation. […] The first dosings were administered two days after the inoculation due to the high take rate and very rapid growth of the tumors. Mice were randomly divided into study groups. […] Unconjugated antibody (TA99/anti-gp75, Invivogen) was used in this study as the control treatment.
# [6] = test system: HL-60 acute myeloid leukemia (AML) cell xenograft tumors; experiment: In vivo efficacy of anti-CD33 ADCs in HL-60 leukemia xenograft; conditions: single i.v. 10 mg/kg
# Procedure: In vivo anti-leukemia xenograft efficacy was evaluated for anti-CD33 ADCs LNAuM (DAR=8.0) and GMAuM (DAR=8.0), as well as anti-CD33 antibodies LN and GM. HL-60 acute myeloid leukemia (AML) cells were obtained from the ATCC and cultured according to the manufacturer's instructions. The study was performed at the TCDM/Central Animal Laboratory, University of Turku, Finland, according to the appropriate ethical committee approval. Cells for inoculation to mice were prepared in vigorous exponential growth phase. 2 million cells in 50% Matrigel were inoculated s.c. to the flank of each mouse (female athymic nude mice between 8-10 weeks of age). Clinical signs and general behavior of the animals was observed regularly. […] Tumor growth was followed by palpation. After caliper measurement, tumor volume was calculated according to 0.5×length×width^2. The first dosings were administered when average tumor volume reached 100 mm^3. […] Intravenous (i.v.) treatment of 10 mg/kg either antibody or ADC in PBS was given once (single dose regimen), while the control group received no treatment.
# [7] = ADC concentration in serum by ELISA (systemic exposure); type: in vivo, mice; conditions: trapezoidal method, 10 mg/kg i.v.
# Procedure: Serum samples (from 40 μl blood) were taken from each mouse in the treatment groups as well as two mice in the control group to follow systemic exposure of the compounds on day 1, day 5 and day 9 after dosing. ADC concentrations in the serum samples were analyzed by ELISA using FastELISA Human immunoglobulin quantification kit (RD-Biotech) according to the manufacturer's instructions. Between 1 d-9 d, LNAuM had better systemic exposure than GMAuM and GMAuM was eliminated faster from circulation by Day 9 than LNAuM.
# [8] = test system: Ramos.2G6.4C10 (no CD33 expression) cells; experiment: Cytotoxicity of anti-CD33 ADCs in Ramos cells; type: cell-based
# Excerpt: as §2
# [9] = test system: Daudi (no CD33 expression) cells; experiment: Cytotoxicity of anti-CD33 ADCs in Daudi cells; type: cell-based
# Excerpt: as §2
# KG-1 cells = experiment: Cytotoxicity of anti-CD33 ADCs in KG-1 cells; type: cell-based; conditions: for IC50: KG-1 cells treated for 3 or 4 days, n = 3
# Excerpt: as §2
# HL-60 cells = experiment: Cytotoxicity of anti-CD33 ADCs in HL-60 cells; type: cell-based; conditions: HL-60 cells treated for 5 days
# Excerpt: as §2
# MOLM-13 cells = experiment: Cytotoxicity of anti-CD33 ADCs in MOLM-13 cells; type: cell-based; conditions: MOLM-13 cells treated for 3 days
# Excerpt: as §2
# [10] = test system: CD33- cell lines Ramos and Daudi versus CD33+ cells; experiment: In vitro therapeutic window, CD33- versus CD33+ cell lines; type: cell-based; conditions: IC50 not reached at 300 nM in Ramos and Daudi versus CD33+ cells
# K-562 (low CD33) cells = experiment: Cytotoxicity of anti-CD33 ADCs in K-562 cells; type: cell-based; conditions: K-562 (low CD33) cells treated for 3 days
# Excerpt: as §2
# [11] = single 5 mg/kg i.v. dose on days 2-7 when tumors reach 60-110 mm^3, 6 mice/group, at least 28 days
# [12] = 5 mice/group, 30 days follow-up
substance,measurement,setting,value
Chimeric TA99-DBCO-Val-Ser(G1cA)-EDA-PNU [CHPeD],Number of mice with <200 mm^3 tumor at end of study,[1]; [11],2
"FLCPeMa: cysteine engineered flanvotumab HC N299C conjugated with PeMa (MA-Ac-EDA-PNU), DAR 1.7",Dose-limiting toxicity dose level,[2],20 mg/kg
same,MTD (maximum tolerated dose),[2],15 mg/kg
"FLCPeMala: cysteine engineered flanvotumab HC N299C conjugated with PeMala (MA-Ac-β-Ala-EDA-PNU), DAR 2.0",IC50 values against IGR-1 cells (in words),[3],picomolar
same,MTD (maximum tolerated dose),[2],5 mg/kg
"FLCPeMg: cysteine engineered flanvotumab HC N299C conjugated with PeMg (MA-Ac-β-Ala-VS(GlcA)-EDA-PNU), DAR 2.2",Number of mice with <200 mm^3 tumor at end of study,[1]; [11],2
same,IC50 values against IGR-1 cells (in words),[3],picomolar
same,Dose-limiting toxicity dose level,[2],12.5 mg/kg
Flanvotumab-DBCO-Val-Ser(GlcA)-EDA-PNU [FLPeD],IC50,[4],1.3 to 8.2 nM
same,Number of mice with <200 mm^3 tumor at end of study,[1]; [11],2
same,IC50 values against IGR-1 cells (in words),[3],picomolar
same,Dose-limiting toxicity dose level,[2],15 mg/kg
same,MTD (maximum tolerated dose),[2],10 mg/kg
TA99,Number of mice with <200 mm^3 tumor at end of study,"[1]; 3 × 10 mg/kg i.v. on days 2, 7 and 12 after inoculation, 10 mice/group, 28 days",0
same,tumor growth (in words),[5],tumors grew rapidly
same,toxicity (in words),[2]; 20 mg/kg or 30 mg/kg,No toxicity was observed
gemtuzumab,tumor growth (in words),[6]; [12],tumors grew fast
gemtuzumab-maleimidoacetyl-β-Ala-Val-Ser(Glc)-PAB-MMAU [GMAuM],toxicity (in words),[6],no toxicity was detected
same,mice in which tumors disappeared without regrowth,[6]; [12],5/5
same,"AUC(1-9 d), partial area under curve between 1 d-9 d",[7],160 mg·days/L
lintuzumab,duration of tumor growth inhibition,[6]; 5 mice/group,about 20 days
same,Unconjugated antibody: no effect up to (highest concentration tested),[8]; Ramos cells,> 300 nM
same,Unconjugated antibody: no effect up to (highest concentration tested),[9],> 300 nM
same,Unconjugated antibody: no effect up to (highest concentration tested),KG-1 cells; KG-1 cells,> 300 nM
lintuzumab-maleimidoacetyl-β-Ala-Val-Ser(Glc)-PAB-MMAU [LNAuM],toxicity (in words),[6],no toxicity was detected
same,mice in which tumors disappeared without regrowth,[6]; [12],5/5
same,IC50,"HL-60 cells; n = 4, read-out: IC50 (AVG ± standard deviation)",0.272 ± 0.181 nM
same,IC50,"HL-60 cells; range over n experiments, read-out: IC50",0.024 to 0.459 nM
same,IC50,"[8]; Ramos.2G6.4C10 cells, no CD33 expression",> 300 nM
same,"AUC(1-9 d), partial area under curve between 1 d-9 d",[7],200 mg·days/L
same,IC50,"MOLM-13 cells; n = 3, read-out: IC50 (AVG ± standard deviation)",0.039 ± 0.016 nM
same,IC50,MOLM-13 cells; read-out: IC50,0.023 to 0.055 nM
same,in vitro therapeutic window,[10],greater than 10000
same,IC50,K-562 (low CD33) cells,24 to 66 nM
same,IC50,"[9]; no CD33 expression, treated for 3 days",> 300 nM
same,IC50,KG-1 cells; read-out: IC50,0.144 to 0.313 nM
same,IC50,KG-1 cells; read-out: IC50 (AVG ± standard deviation),0.242 ± 0.088 nM
